In patent US20180303807A1, “ANDROGEN RECEPTOR LIGANDS” (DUKE UNIVERSITY, priority 2015, published 2018):

Assays:
AR = biological target: T1, AR (Homo sapiens, UniProt P10275); experiment: Reporter gene assay, AR transcriptional (MMTV-Luc) in CV1 cells; type: cell-based; conditions: pcDNA-AR + MMTV-Luc, 0.1 nM R1881 plus test compound, 24 hrs; for IC50: read-out: B1 = AR transcriptional IC50 (μM) in CV1 cells
T1 construct: expressed in transfected cells; host or cells: CV1 cells
T1 sequence (P10275 1-920): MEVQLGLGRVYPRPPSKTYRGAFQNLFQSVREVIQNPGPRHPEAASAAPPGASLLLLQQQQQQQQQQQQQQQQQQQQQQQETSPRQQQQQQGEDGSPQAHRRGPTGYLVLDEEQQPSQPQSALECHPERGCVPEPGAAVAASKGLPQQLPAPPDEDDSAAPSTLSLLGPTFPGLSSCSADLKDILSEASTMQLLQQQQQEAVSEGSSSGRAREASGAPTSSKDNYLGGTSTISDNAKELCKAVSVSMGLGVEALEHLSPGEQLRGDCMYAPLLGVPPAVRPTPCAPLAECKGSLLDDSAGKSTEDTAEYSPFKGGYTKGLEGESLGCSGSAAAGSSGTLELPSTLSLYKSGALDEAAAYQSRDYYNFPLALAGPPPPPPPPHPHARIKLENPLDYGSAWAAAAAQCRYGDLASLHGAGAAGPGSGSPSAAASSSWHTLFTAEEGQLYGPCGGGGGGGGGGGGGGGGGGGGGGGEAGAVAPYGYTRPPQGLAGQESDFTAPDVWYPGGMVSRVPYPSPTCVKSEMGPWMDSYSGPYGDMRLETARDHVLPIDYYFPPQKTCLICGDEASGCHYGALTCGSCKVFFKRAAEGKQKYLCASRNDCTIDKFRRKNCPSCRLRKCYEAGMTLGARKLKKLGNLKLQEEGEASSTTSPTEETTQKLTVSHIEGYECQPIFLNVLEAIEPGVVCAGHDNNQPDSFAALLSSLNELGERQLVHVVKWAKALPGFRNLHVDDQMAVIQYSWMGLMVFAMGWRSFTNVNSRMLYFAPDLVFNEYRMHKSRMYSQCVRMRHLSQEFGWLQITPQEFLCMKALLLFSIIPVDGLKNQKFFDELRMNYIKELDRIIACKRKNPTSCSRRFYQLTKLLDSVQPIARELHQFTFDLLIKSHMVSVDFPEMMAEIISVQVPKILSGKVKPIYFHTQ
Description: (§1) Reporter Gene Assay (IC50 determination, Table 2, B1-B3). CV1 cells were seeded into 96-well cell culture plates and transfected with Lipofectin. For AR transcriptional assays, the DNA mixture consisted of pcDNA-AR, MMTV-Luc (androgen responsive reporter gene), and Renilla-Luc (for assessing transfection efficiency and toxicity). Following overnight incubation, cells were induced with hormone (0.1 nM R1881 (synthetic AR agonist) plus increasing concentrations of test compound) for 24 hrs. Cells were lysed and luciferase activity was quantified using Dual Luciferase Reagent (DLR). IC50 determination was assessed using GraphPad Prism software.

CV1 cells = experiment: Toxicity of test compound in the CV1 reporter gene assay (Renilla-Luc); type: cell-based
Description: as §1

Compound | IC50 (AR) [µM] | further results
CC1(C)CC(=O)C2=C(C1)Nc1ccc3ccccc3c1C2c1c[nH]c2ccccc12 (centres unmarked) [Compound A14] | > 10 | B2 = % Toxicity of test compound (20 μM) (CV1 cells; 20 μM): 0%; B3 = % Toxicity of test compound (60 μM) (CV1 cells; 60 μM): 0%
O=C1CCC2=C1C(c1ccc([N+](=O)[O-])cc1)c1c(ccc3ncccc13)N2 (centres unmarked) [Compound A47] | 9.9 | –
CC1(C)CC(=O)C2=C(C1)Nc1ccc3cn[nH]c3c1C2c1ccc(Br)s1 (centres unmarked) [Compound A112] | 3.2 | –
CC(C)C1CC(=O)C2=C(C1)Nc1ccc3ncccc3c1C2c1ccc([N+](=O)[O-])cc1 (centres unmarked) [Compound A45] | 0.3 | –
CC1(C)CC(=O)C2=C(C1)Nc1ccc3cnccc3c1C2c1ccc([N+](=O)[O-])cc1 (centres unmarked) [Compound A43] | 9.1 | –
CC1(C)CC(=O)C2=C(C1)Nc1ccc3nc(C(=O)O)ccc3c1C2c1ccc(F)c(F)c1 (racemic) [Compound A80, (±)-12-(3,4-difluorophenyl)-9,9-dimethyl-11-oxo-7,8,9,10,11,12-hexahydrobenzo[b][4,7]phenanthroline-3-carboxylic acid] | > 10 | –
CC1(C)CC2=C(C(c3ccc(F)c(F)c3)c3c(ccc4ncccc34)N2)S(=O)(=O)C1 (racemic) [Compound A53, (±)-12-(3,4-difluorophenyl)-9,9-dimethyl-8,9,10,12-tetrahydro-7H-thiopyrano[2,3-b][4,7]phenanthroline 11,11-dioxide] | > 10 | –
CC1(C)CC(=O)C2=C(C1)Nc1ccc3ncccc3c1C2c1ccc(C(=O)O)cc1 (centres unmarked) [Compound A37] | 38 | –
Cc1ccc2c3c(ccc2n1)NC1=C(C(=O)CC(C)(C)C1)C3c1ccc(F)c(F)c1 (racemic) [Compound A81, (±)-12-(3,4-difluorophenyl)-3,9,9-trimethyl-8,9,10,12-tetrahydrobenzo[b][4,7]phenanthrolin-11(7H)-one] | > 10 | –
Cc1ccc(C2C3=C(CC(C)(C)CC3=O)Nc3cc(N4CCCC4)ccc32)s1 (centres unmarked) [Compound A105] | > 10 | –
CC1(C)CC(=S)C2=C(C1)Nc1ccc3ncccc3c1C2c1ccc(F)c(F)c1 (racemic) [Compound A82, (±)-12-(3,4-difluorophenyl)-9,9-dimethyl-8,9,10,12-tetrahydrobenzo[b][4,7]phenanthroline-11(7H)-thione] | 9.1 | –
CN1CC(=O)C2=C(C1)Nc1ccc3ncccc3c1C2c1ccc(F)c(F)c1 (racemic) [Compound A54, (±)-12-(3,4-difluorophenyl)-9-methyl-8,9,10,12-tetrahydropyrido[4,3-b][4,7]phenanthrolin-11(7H)-one] | > 10 | –
CC1(C)CC(=O)C2=C(C1)Nc1c(ccc3ncccc13)C2c1ccc([N+](=O)[O-])cc1 (centres unmarked) [Compound A44] | – | B1 = AR transcriptional IC50 (μM) in CV1 cells (AR): Inactive
CC1(C)CC(=O)C2=C(C1)Nc1cc(N3CCCC3)ccc1C2c1ccc(Br)s1 (racemic) [Compound A98, (±)-9-(5-bromothiophen-2-yl)-3,3-dimethyl-6-(pyrrolidin-1l-yl)-3,4,9,10-tetrahydroacridin-1(2H)-one] | > 10 | –
CC1(C)CC(=O)C2=C(C1)Nc1cc(N3CCCC3)ccc1C2c1cc2ccccc2s1 (racemic) [Compound A94, (±)-9-(benzo[b]thiophen-2-yl)-3,3-dimethyl-6-(pyrrolidin-1-yl)-3,4,9,10-tetrahydroacridin-1(2H)-one] | > 10 | –
Cc1ccc(C2C3=C(CC(C)(C)CC3=O)Nc3ccc4nccnc4c32)s1 (racemic) [Compound A104, (±)-9,9-dimethyl-12-(5-methylthiophen-2-yl)-8,9,10,12-tetrahydropyrazino[2,3-a]acridin-11(7H)-one] | 2 | –
CC1(C)CC(=O)C2=C(C1)Nc1ccc3ncccc3c1C2c1ccc(S(C)(=O)=O)cc1 (centres unmarked) [Compound A36] | – | B1 = AR transcriptional IC50 (μM) in CV1 cells (AR): Inactive
CC1(C)CC(=O)C2=C(C1)Nc1ccc3ncncc3c1C2c1ccc(F)c(F)c1 (racemic) [Compound A86, (±)-12-(3,4-difluorophenyl)-9,9-dimethyl-8,9,10,12-tetrahydropyrimido[5,4-a]acridin-11(7H)-one] | 1.8 | –

Further lines, with some results ahead:

IC50 (AR) [µM] | Compound | further results
58 | Cc1ccc(C2C3=C(CC(C)(C)CC3=O)Nc3ccc4ncccc4c32)nc1 (centres unmarked) [Compound A35] | –
0.6 | CC1(C)CC(=O)C2=C(C1)Nc1ccc3nccnc3c1C2c1ccc(Cl)s1 (racemic) [Compound A99, (±)-12-(5-chlorothiophen-2-yl)-9,9-dimethyl-8,9,10,12-tetrahydropyrazino[2,3-a]acridin-11(7H)-one] | –
1.2 | CC1(C)CC(=O)C2=C(C1)Nc1ccc3cn[nH]c3c1C2c1ccc(Cl)s1 (centres unmarked) [Compound A108] | –
2.2 | CC1(C)CC(=O)C2=C(C1)Nc1ccc3ncccc3c1C2c1ccc(Cl)c(Cl)c1 (centres unmarked) [Compound A31] | –
3.4 | CC1(C)CC(=O)C2=C(C1)Nc1ccc3ncccc3c1C2c1ccc(Br)cn1 (centres unmarked) [Compound A33] | –
0.5 | CC1(C)CC(=O)C2=C(C1)Nc1ccc3ccccc3c1C2c1cc2ccccc2s1 (racemic) [Compound A95, (±)-12-(benzo[b]thiophen-2-yl)-9,9-dimethyl-8,9,10,12-tetrahydrobenzo[a]acridin-11(7H)-one] | –
1.9 | CC1(C)CC(=O)C2=C(C1)Nc1ccc3ncccc3c1C2c1ccc(C(F)(F)F)cc1 (centres unmarked) [Compound A41] | –
1.7 | CC1(C)CC(=O)C2=C(C1)Nc1ccc3ncccc3c1C2c1ccc(F)cc1 (centres unmarked) [Compound A40] | –
1.3 | C[n+]1cccc2c3c(ccc21)NC1=C(C(=O)CC(C)(C)C1)C3c1ccc(F)c(F)c1 (racemic) [Compound A87, (±)-12-(3,4-difluorophenyl)-4,9,9-trimethyl-11-oxo-7,8,9,10,11,12-hexahydrobenzo[b][4,7]phenanthrolin-4-ium iodide] | –
0.4 | CC1(C)CC(=O)C2=C(C1)Oc1ccc3ccccc3c1C2c1ccc(F)c(F)c1 (racemic) [Compound A89, (±)-12-(3,4-difluorophenyl)-9,9-dimethyl-9,10-dihydro-8H-benzo[a]xanthen-11(12H)-one] | –
> 10 | Cc1ccsc1C1C2=C(CC(C)(C)CC2=O)Nc2ccc3nccnc3c21 (centres unmarked) [Compound A115] | –
0.4 | CC1(C)CC(=O)C2=C(C1)Nc1ccc3ncccc3c1C2c1ccc(F)c(F)c1 (centres unmarked) [Compound A32] | –
0.43 | CC1CC(=O)C2=C(C1)Nc1ccc3ncccc3c1C2c1ccc([N+](=O)[O-])cc1 (centres unmarked) [Compound A26] | –
> 10 | CC1(C)CC(=O)C2=C(C1)Nc1ccc3ncccc3c1C2c1cncnc1 (centres unmarked) [Compound A58] | –
4.1 | CC1(C)CC(=O)C2=C(C1)Nc1ccc3ncccc3c1C2c1cccs1 (centres unmarked) [Compound A66, 9,9-dimethyl-12-(thiophen-2-yl)-8,9,10,12-tetrahydrobenzo[b][4,7]phenanthrolin-11(7H)-one] | –
1.9 | CC1(C)CC(=O)C2=C(C1)Nc1ccc3ncccc3c1C2c1ccc(Br)nc1 (centres unmarked) [Compound A34] | –
> 10 | CC1(C)CC(=O)C2=C(C1)Nc1ccc3nc(C#N)ccc3c1C2c1ccc(F)c(F)c1 (racemic) [Compound A52, (±)-12-(3,4-difluorophenyl)-9,9-dimethyl-11-oxo-7,8,9,10,11,12-hexahydrobenzo[b][4,7]phenanthroline-3-carbonitrile] | –
1.2 | CC1(C)CC(=O)C2=C(C1)Nc1ccc3ncccc3c1C2c1ccc(C#N)cn1 (centres unmarked) [Compound A56] | –
1.8 | CC1(C)CC(=O)C2=C(C1)Nc1ccc3ncccc3c1C2c1ccc2nonc2c1 (centres unmarked) [Compound A30] | –
0.8 | Cc1ccc(C2C3=C(CC(C)(C)CC3=O)Nc3ccc4ccccc4c32)s1 (centres unmarked) [Compound A106, 9,9-dimethyl-12-(5-methylthiophen-2-yl)-8,9,10,12-tetrahydrobenzo[a]acridin-11(7H)-one] | –
> 10 | CC1(C)CC(=O)C2=C(C1)Nc1ccc3ncccc3c1C2c1cnccn1 (centres unmarked) [Compound A65] | –
> 10 | CC1(C)CC(=O)C2=C(C1)Nc1ccc3cn[nH]c3c1C2c1ccc(F)c(F)c1 (centres unmarked) [Compound A77] | –
3.3 | CC1(C)CC(=O)C2=C(C1)Nc1ccc3ncccc3c1C2c1ccc([N+](=O)[O-])c(O)c1 (centres unmarked) [Compound A38] | –
52 | CC1(C)CC(=O)C2=C(C1)Nc1ccc3ncccc3c1C2c1ccc(B(O)O)c(F)c1 (centres unmarked) [Compound A39] | –
